Data published in US20120004180A1, “METHOD OF PRODUCING A NOVEL OPIOID PEPTIDE” (priority 2008, published 2012).

Experiments:
physical dependence = details: compared with morphine; cited from earlier work
pain = details: experiments on animals; intrathecal application in rats; cited from earlier work
thermal pain = experiment: Thermal pain sensitivity after subarachnoid administration via cannula; format: in vivo; details: rats, dose of 5 mg
Source text: Two days prior to the experiments, rats were implanted with cannulae into the subarachnoid cavity. During the experiment, the analgesic activity was examined by administering the peptide analogue (N′-Tyrosyl-D-alanyl-glycyl-phenylalanyl, N″-alpha-methyl-4-(2-methylpropyl) benzenoacetyl-D-tryptophanyl)-hydrazide.

[1] = system: acute pain in mice with inflammation; experiment: Tail immersion in water heated to 55° C. in murine melanoma metastasis model with inflammation; format: in vivo; details: two weeks after murine melanoma cells into the hind limb, intraperitoneal injection 30 mg/kg
Description: In an animal metastasis model, inflammation was induced by administering around a million cells of murine melanoma into the hind limb. After two days, a progressing inflammation was observed, elicited by tumour take. After two weeks of tumour development, the analgesic activity of (N′-Tyrosyl-D-alanyl-glycyl-phenylalanyl, N″-salicyl-glycyl-D-tryptophanyl)-hydrazide was examined against acute pain caused by tail immersion in water heated to 55° C.

[2] = system: acute pain in mice with inflammation; experiment: Tail immersion in water at 55° C. in mice with Freund's adjuvant-induced inflammation; format: in vivo; details: one week after Freund's adjuvant into the limb, intravenous injection 20 mg/kg
Description: Inflammation was induced in mice through application of Freund's adjuvant into the limb. A progressing inflammation was observed after two days. After a week, the analgesic effects on acute pain of the peptide analogue HCl.Tyr-D-Ala-Gly-Phe-NHNH-(CBz-D-Trp-) were examined via the immersion of the tail in water at 55° C.

C[C@@H](NC(=O)[C@@H](N)Cc1ccc(O)cc1)C(=O)NCC(=O)N[C@@H](Cc1ccccc1)C(=O)NNC(=O)[C@H](Cc1ccccc1)NC(=O)CNC(=O)[C@@H](C)NC(=O)[C@@H](N)Cc1ccc(O)cc1 [biphalin]
habit-forming activity (physical dependence) (physical dependence): much lesser habit-forming activity | analgesic activity (pain): significant analgesic activity

(N′-Tyrosyl-D-alanyl-glycyl-phenylalanyl, N″-alpha-methyl-4-(2-methylpropyl) benzenoacetyl-D-tryptophanyl)-hydrazide [Example III]
duration of elimination of sensitivity to thermal pain (thermal pain): 1 h | sensitivity to thermal pain (thermal pain): complete elimination

(N′-Tyrosyl-D-alanyl-glycyl-phenylalanyl, N″-salicyl-glycyl-D-tryptophanyl)-hydrazide [Example II]
pain reaction (analgesic activity against acute pain, tail immersion) [1]: completely mitigated

(N′-tyrosyl-D-alanyl-glycyl-phenylalanyl, N″-benzoxycarbonyl-D-tryptophanyl) hydrazide [Example I]
pain reaction (analgesic effect on acute pain, tail immersion) [2]: completely mitigated
